Source: patent US12493040B2, “Cancer detection method using sense of smell of nematode” (HIROTSU BIO SCIENCE INC., priority 2013, dated 2025)

Tested on: RNAi-treated eri-1 (mg366) nematodes
Assay: RNAi screening of olfactory receptor genes: chemotaxis assay of RNAi-treated nematodes to odorants
Format: in vivo, Caenorhabditis elegans
Details: low concentration of attractant
In short: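 eri-1 (mg366) worms knocked down by feeding RNAi (Ahringer library) on IPTG/ampicillin NGM plates with E. coli for 4 days, then tested for chemotaxis, 30–50 worms per assay. Odorants at 1 μl of 10^−3 or 10^−4 dilution, or 1 and 5 μl undiluted. Hits scored by z score, thresholds ±1.96 (P<0.05) or ±0.96.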

Work on `c1cnccn1` [pyrazine] yielded a chemotaxis index (Control nematodes) of 0.49 ± 0.019, a chemotaxis index (srh-10 RNAi-treated nematodes) of 0.67 and a chemotaxis index (srh-11 RNAi-treated nematodes) of 0.87. For the same molecule, the chemotaxis index (srh-15 RNAi-treated nematodes) was 0.78, the chemotaxis index (srh-16 RNAi-treated nematodes) was 0.82 and the chemotaxis index (srh-18 RNAi-treated nematodes) was 0.73. It also gave a chemotaxis index (srh-19 RNAi-treated nematodes) of 0.33, a chemotaxis index (srh-22 RNAi-treated nematodes) of 0.82 and a chemotaxis index (srh-23 RNAi-treated nematodes) of 0.43. It also gave a chemotaxis index (srh-24 RNAi-treated nematodes) of 0.57, a chemotaxis index (srh-25 RNAi-treated nematodes) of 0.64 and a chemotaxis index (srh-27 RNAi-treated nematodes) of 0.32. The chemotaxis index (srh-28 RNAi-treated nematodes) was 0.23, the chemotaxis index (srh-36 RNAi-treated nematodes) was 0.53 and the chemotaxis index (srh-37 RNAi-treated nematodes) was 0.88. For the same molecule, the chemotaxis index (srh-39 RNAi-treated nematodes) was 0.11, the chemotaxis index (srh-40 RNAi-treated nematodes) was 0.51 and the chemotaxis index (srh-41 RNAi-treated nematodes) was 0.71. It also gave a chemotaxis index (srh-44 RNAi-treated nematodes) of 0.44, a chemotaxis index (srh-45 RNAi-treated nematodes) of 0.74 and a chemotaxis index (srh-46 RNAi-treated nematodes) of −0.04. It also gave a chemotaxis index (srh-48 RNAi-treated nematodes) of 0.15, a chemotaxis index (srh-49 RNAi-treated nematodes) of 0.52 and a chemotaxis index (srh-50 RNAi-treated nematodes) of 0.83. For the same molecule, the chemotaxis index (srh-51 RNAi-treated nematodes) was 0.31, the chemotaxis index (srh-52 RNAi-treated nematodes) was 0.55 and the chemotaxis index (srh-55 RNAi-treated nematodes) was 0.56. It also gave a chemotaxis index (srh-59 RNAi-treated nematodes) of 0.04, a chemotaxis index (srh-60 RNAi-treated nematodes) of 0.52 and a chemotaxis index (srh-61 RNAi-treated nematodes) of 0.27. The chemotaxis index (srh-67 RNAi-treated nematodes) was 0.39, the chemotaxis index (srh-68 RNAi-treated nematodes) was 0.36 and the chemotaxis index (srh-69 RNAi-treated nematodes) was 0.35. The chemotaxis index (srh-70 RNAi-treated nematodes) was 0.41, the chemotaxis index (srh-71 RNAi-treated nematodes) was 0.56 and the chemotaxis index (srh-72 RNAi-treated nematodes) was 0.50. For the same molecule, the chemotaxis index (srh-74 RNAi-treated nematodes) was 0.26, the chemotaxis index (srh-75 RNAi-treated nematodes) was 0.71 and the chemotaxis index (srh-77 RNAi-treated nematodes) was 0.44. The chemotaxis index (srh-79 RNAi-treated nematodes) was 0.12, the chemotaxis index (srh-80 RNAi-treated nematodes) was 0.40 and the chemotaxis index (srh-82 RNAi-treated nematodes) was 0.31. The chemotaxis index (srh-83 RNAi-treated nematodes) was 0.38, the chemotaxis index (srh-97 RNAi-treated nematodes) was 0.66 and the chemotaxis index (srh-99 RNAi-treated nematodes) was 0.29. It also gave a chemotaxis index (srh-100 RNAi-treated nematodes) of 0.30, a chemotaxis index (srh-104 RNAi-treated nematodes) of −0.18 and a chemotaxis index (srh-105 RNAi-treated nematodes) of 0.32. The chemotaxis index (srh-109 RNAi-treated nematodes) was 0.32, the chemotaxis index (srh-111 RNAi-treated nematodes) was −0.23 and the chemotaxis index (srh-113 RNAi-treated nematodes) was 0.35. It also gave a chemotaxis index (srh-115 RNAi-treated nematodes) of 0.19, a chemotaxis index (srh-116 RNAi-treated nematodes) of 0.35 and a chemotaxis index (srh-118 RNAi-treated nematodes) of 0.36. The chemotaxis index (srh-119 RNAi-treated nematodes) was 0.37, the chemotaxis index (srh-120 RNAi-treated nematodes) was 0.54 and the chemotaxis index (srh-122 RNAi-treated nematodes) was 0.47. For the same molecule, the chemotaxis index (srh-123 RNAi-treated nematodes) was 0.63, the chemotaxis index (srh-125 RNAi-treated nematodes) was 0.39 and the chemotaxis index (srh-128 RNAi-treated nematodes) was 0.54. The chemotaxis index (srh-129 RNAi-treated nematodes) was 0.71, the chemotaxis index (srh-130 RNAi-treated nematodes) was 0.22 and the chemotaxis index (srh-214 RNAi-treated nematodes) was 0.72. The chemotaxis index (srh-216 RNAi-treated nematodes) was 0.60, the chemotaxis index (srh-217 RNAi-treated nematodes) was 0.94 and the chemotaxis index (srh-220 RNAi-treated nematodes) was 0.40. It also gave a chemotaxis index (srh-222 RNAi-treated nematodes) of 0.65, a chemotaxis index (srh-223 RNAi-treated nematodes) of 0.43 and a chemotaxis index (srh-227 RNAi-treated nematodes) of 0.35. For the same molecule, the chemotaxis index (srh-229 RNAi-treated nematodes) was 0.09, the chemotaxis index (srh-233 RNAi-treated nematodes) was 0.49 and the chemotaxis index (srh-235 RNAi-treated nematodes) was 0.73. The chemotaxis index (srh-236 RNAi-treated nematodes) was 0.44, the chemotaxis index (srh-239 RNAi-treated nematodes) was 0.54 and the chemotaxis index (srh-241 RNAi-treated nematodes) was 0.78. The chemotaxis index (srh-243 RNAi-treated nematodes) was 0.48, the chemotaxis index (srh-244 RNAi-treated nematodes) was 0.34 and the chemotaxis index (srh-247 RNAi-treated nematodes) was 0.49. For the same molecule, the chemotaxis index (srh-250 RNAi-treated nematodes) was 0.55, the chemotaxis index (srh-251 RNAi-treated nematodes) was 0.32 and the chemotaxis index (srh-252 RNAi-treated nematodes) was 0.87. For the same molecule, the chemotaxis index (srh-258 RNAi-treated nematodes) was 0.44, the chemotaxis index (srh-261 RNAi-treated nematodes) was 0.57 and the chemotaxis index (srh-264 RNAi-treated nematodes) was 0.85. The chemotaxis index (srh-266 RNAi-treated nematodes) was −0.14, the chemotaxis index (srh-274 RNAi-treated nematodes) was 0.12 and the chemotaxis index (srh-275 RNAi-treated nematodes) was 0.42. The chemotaxis index (srh-276 RNAi-treated nematodes) was 0.44, the chemotaxis index (srh-277 RNAi-treated nematodes) was 0.81 and the chemotaxis index (srh-279 RNAi-treated nematodes) was 0.37. It also gave a chemotaxis index (srh-281 RNAi-treated nematodes) of 0.01, a chemotaxis index (srh-282 RNAi-treated nematodes) of 0.55 and a chemotaxis index (srh-283 RNAi-treated nematodes) of 0.26. The chemotaxis index (srh-284 RNAi-treated nematodes) was 0.49, the chemotaxis index (srh-291 RNAi-treated nematodes) was 0.82 and the chemotaxis index (srh-292 RNAi-treated nematodes) was 0.43. It also gave a chemotaxis index (srh-293 RNAi-treated nematodes) of 0.59, a chemotaxis index (srh-297 RNAi-treated nematodes) of 0.29 and a chemotaxis index (srh-298 RNAi-treated nematodes) of 0.33. The chemotaxis index (srh-308 RNAi-treated nematodes) was 0.15.
